Data taken from publication PMC3351444, “Molecular Evolution of a Peptide GPCR Ligand Driven by Artificial Neural Networks” (PLoS ONE, 2012).
Like-named read-outs stand apart in the source and are kept apart here. Square brackets hold non-standard residues; d marks the D form. Ends that are not written are not given here. Peptide text beside a SMILES is read from it.

Experiments:
[1] = In vitro peptide stability in human serum (RP-HPLC); conditions: for half-life at 50 µg/mL: human, human serum, 25% (v/v) in RPMI; for t1/2: metabolic stability in human serum
human CMKLR1 = biological target: T1, human CMKLR1 (Homo sapiens, UniProt Q99788); assay: Ca2+ mobilization (CellLux imaging) agonist assay in HEK293A cells expressing CMKLR1 and Gα15; format: cell-based
T1 construct: host or cells: HEK293A (Invitrogen), stably expressing human Gα15
T1 sequence (Q99788 1-373): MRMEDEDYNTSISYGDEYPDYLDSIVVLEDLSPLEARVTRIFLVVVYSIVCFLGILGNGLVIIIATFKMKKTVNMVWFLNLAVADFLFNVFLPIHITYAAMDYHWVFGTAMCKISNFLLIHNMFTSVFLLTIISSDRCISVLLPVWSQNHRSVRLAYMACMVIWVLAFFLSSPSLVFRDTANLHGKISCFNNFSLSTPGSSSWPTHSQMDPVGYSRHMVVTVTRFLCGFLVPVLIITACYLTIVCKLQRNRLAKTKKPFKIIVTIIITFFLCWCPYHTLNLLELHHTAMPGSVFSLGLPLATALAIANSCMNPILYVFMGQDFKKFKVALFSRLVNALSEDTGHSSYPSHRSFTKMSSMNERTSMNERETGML
How it was run: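 Agonist-evoked Ca2+ rise, read as FLUO4-AM fluorescence by imaging, in HEK293A cells carrying CMKLR1 plus Gα15. Peptides were diluted in C1 solution (pH 7.4) containing 0.1% BSA. Duplicate signals were averaged, corrected for buffer wells and normalized to background, and EC50 was fitted from amplitude versus concentration.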

[2] = intracellular calcium mobilization, HEK293 cells expressing CMKLR1, mean of three independent experiments ± SD, read-out: activity: EC50 ±SD
[3] = Ca2+ mobilization, CMKLR1, decimal comma
[4] = Ca2+ mobilization, CMKLR1, decimal comma, NR where no EC50 is given, read-out: EC50

Molecule | half-life at 50 µg/mL [1] | EC50 (human CMKLR1; [2]) | max response (human CMKLR1; [3]) | EC50 (human CMKLR1; [4]) | t1/2 [1]
CC(C)[C@H](NC(=O)[C@@H](N)Cc1ccc(O)cc1)C(=O)N1CCC[C@H]1C(=O)NCC(=O)N[C@@H](CCC(N)=O)C(=O)N[C@@H](Cc1ccccc1)C(=O)N[C@@H](C)C(=O)N[C@@H](Cc1ccccc1)C(=O)N[C@H](Cc1ccccc1)C(=O)O (H-YVPGQFAF[dF]-OH; N-terminus assumed) | 42 ± 19 min | 4.17 ± 2.31 nM | – | – | –
CC(C)C[C@H](NC(=O)[C@@H](N)Cc1ccc(O)cc1)C(=O)N1CCC[C@H]1C(=O)N[C@H](Cc1c[nH]c2ccccc12)C(=O)N[C@@H](CCC(N)=O)C(=O)N[C@@H](Cc1ccc(O)cc1)C(=O)N[C@@H](C)C(=O)N[C@@H](Cc1ccccc1)C(=O)N[C@H](Cc1ccccc1)C(=O)O [compound 127] (H-YLP[dW]QYAF[dF]-OH; N-terminus assumed) | 124 min | – | 1,52 DF/F0 | 35.6 nM | –
C[C@H](NC(=O)CN)C(=O)N[C@@H](Cc1ccccc1)C(=O)N[C@@H](CCC(N)=O)C(=O)N[C@@H](Cc1ccccc1)C(=O)N[C@H](CO)C(=O)N[C@@H](C)C(=O)N[C@@H](Cc1ccccc1)C(=O)N[C@H](CO)C(=O)O [compound 100] (H-GAFQF[dS]AF[dS]-OH; N-terminus assumed) | 71 min | – | 1,69 DF/F0 | 129 nM | –
CC(C)C[C@H](NC(=O)[C@H](C)NC(=O)[C@H](Cc1ccc(O)cc1)NC(=O)[C@@H](CCC(N)=O)NC(=O)CNC(=O)[C@@H]1CCCN1C(=O)[C@H](CC(C)C)NC(=O)[C@@H](N)Cc1ccc(O)cc1)C(=O)N[C@H](Cc1ccccc1)C(=O)O [compound 135] (H-YLPG[dQ]YAL[dF]-OH; N-terminus assumed) | 40 min | – | 1,48 DF/F0 | 72.2 nM | –
CC(C)C[C@H](NC(=O)[C@@H](N)Cc1ccc(O)cc1)C(=O)N1CCC[C@H]1C(=O)NCC(=O)N[C@@H](CCC(N)=O)C(=O)N[C@@H](Cc1ccc(O)cc1)C(=O)N[C@@H](C)C(=O)N1CCC[C@@H]1C(=O)N[C@H](Cc1ccccc1)C(=O)O [compound 125] (H-YLPGQYA[dP][dF]-OH; N-terminus assumed) | 42 min | – | 1,69 DF/F0 | 14.3 nM | –
C[C@H](NC(=O)[C@H](Cc1ccc(O)cc1)NC(=O)[C@H](CCC(N)=O)NC(=O)CNC(=O)[C@@H]1CCCN1C(=O)[C@H](CCCNC(=N)N)NC(=O)[C@@H](N)Cc1ccc(O)cc1)C(=O)N[C@@H](Cc1ccccc1)C(=O)N[C@H](CO)C(=O)O [compound 84] (H-YRPGQYAF[dS]-OH; N-terminus assumed) | – | – | 1,84 DF/F0 | – | 21 min
CC(C)C[C@H](NC(=O)[C@@H](N)CCC(N)=O)C(=O)N1CCC[C@H]1C(=O)NCC(=O)N[C@@H](CCC(N)=O)C(=O)N[C@@H](Cc1ccccc1)C(=O)N[C@@H](C)C(=O)N[C@H](Cc1ccccc1)C(=O)N[C@@H](Cc1ccccc1)C(=O)O [compound 71] (H-QLPGQFA[dF]F-OH; N-terminus assumed) | 31 min | – | 0,66 DF/F0 | 2460 nM | –
CC(C)C[C@H](NC(=O)[C@@H](N)Cc1ccc(O)cc1)C(=O)N1CCC[C@H]1C(=O)NCC(=O)N[C@@H](CCC(N)=O)C(=O)N[C@@H](Cc1ccc(O)cc1)C(=O)N[C@H](Cc1c[nH]c2ccccc12)C(=O)N[C@@H](Cc1ccccc1)C(=O)N[C@H](Cc1ccccc1)C(=O)O [compound 122] (H-YLPGQY[dW]F[dF]-OH; N-terminus assumed) | – | – | 1,54 DF/F0 | – | 159 min
YLPGQGAFP-OH [compound 49] | 17 min | – | 0,97 DF/F0 | 28.7 nM | –
C[C@H](NC(=O)[C@H](Cc1ccccc1)NC(=O)[C@H](C)NC(=O)[C@@H](N)Cc1ccccc1)C(=O)N[C@@H](Cc1ccccc1)C(=O)N[C@H](CO)C(=O)N[C@@H](Cc1ccccc1)C(=O)N[C@@H](C)C(=O)N[C@@H](Cc1ccc(O)cc1)C(=O)O [compound 117] (H-FAFAF[dS]FAY-OH; N-terminus assumed) | 26 min | – | 0,87 DF/F0 | 4450 nM | –
C[C@H](NC(=O)[C@@H](N)Cc1ccc(O)cc1)C(=O)N[C@@H](Cc1ccccc1)C(=O)N[C@H](CO)C(=O)N1CCC[C@H]1C(=O)NCC(=O)N[C@@H](CCC(N)=O)C(=O)N[C@@H](Cc1ccccc1)C(=O)N[C@H](CO)C(=O)O [compound 93] (H-YAF[dS]PGQF[dS]-OH; N-terminus assumed) | 81 min | – | 1,67 DF/F0 | 64.4 nM | –
CC(C)C[C@H](NC(=O)[C@H](N)Cc1ccc(O)cc1)C(=O)N1CCC[C@H]1C(=O)N[C@H](CO)C(=O)N[C@@H](CCC(N)=O)C(=O)N[C@@H](Cc1ccc(O)cc1)C(=O)N[C@@H](C)C(=O)N[C@@H](Cc1ccccc1)C(=O)N[C@H](CO)C(=O)O [yLPsQYAFs] (H-[dY]LP[dS]QYAF[dS]-OH; N-terminus assumed) | 1410 ± 85 min | 2.9 ± 1.34 nM | – | – | –
CC(C)C[C@H](NC(=O)[C@@H](N)Cc1ccc(O)cc1)C(=O)N1CCC[C@H]1C(=O)NCC(=O)N[C@@H](CCC(N)=O)C(=O)N[C@@H](Cc1ccc(O)cc1)C(=O)N[C@H](Cc1c[nH]c2ccccc12)C(=O)N[C@@H](Cc1ccccc1)C(=O)N[C@H](Cc1ccccc1)C(=O)O [YLPGQYwFf] (H-YLPGQY[dW]F[dF]-OH; N-terminus assumed) | 159 ± 56 min | 3.24 ± 1.02 nM | – | – | –
CC(C)C[C@H](NC(=O)[C@@H](N)Cc1ccc(O)cc1)C(=O)N1CCC[C@H]1C(=O)N[C@H](Cc1ccc(O)cc1)C(=O)N[C@H](CCC(N)=O)C(=O)N[C@@H](Cc1ccc(O)cc1)C(=O)N[C@@H](C)C(=O)N[C@@H](CCC(N)=O)C(=O)N[C@H](Cc1ccccc1)C(=O)O [compound 150] (H-YLP[dY][dQ]YAQ[dF]-OH; N-terminus assumed) | 62 min | – | 1,35 DF/F0 | 284 nM | –
FLPGQPYFL-OH [compound 65] | 32 min | – | 0,91 DF/F0 | 713 nM | –
YFLGQFAFK-OH [compound 76] | 16 min | – | 0,65 DF/F0 | 5830 nM | –
YLPGQGAFK-OH [compound 69] | 22 min | – | 0,99 DF/F0 | 1870 nM | –
CC(C)C[C@H](NC(=O)[C@H](C)NC(=O)[C@H](Cc1ccc(O)cc1)NC(=O)[C@@H](Cc1ccc(O)cc1)NC(=O)CNC(=O)[C@@H]1CCCN1C(=O)[C@H](CC(C)C)NC(=O)[C@@H](N)Cc1ccc(O)cc1)C(=O)N[C@H](Cc1ccccc1)C(=O)O [compound 136] (H-YLPG[dY]YAL[dF]-OH; N-terminus assumed) | 97 min | – | 1,4 DF/F0 | 75 nM | –
CC(C)C[C@H](NC(=O)[C@H](Cc1ccc(O)cc1)NC(=O)[C@H](CCC(N)=O)NC(=O)[C@@H](Cc1ccccc1)NC(=O)[C@@H](CC(=O)O)NC(=O)[C@@H]1CCCN1C(=O)[C@H](CC(C)C)NC(=O)[C@@H](N)Cc1ccc(O)cc1)C(=O)N1CCC[C@H]1C(=O)O [compound 148] (H-YLP[dD][dF]QYLP-OH; N-terminus assumed) | 32 min | – | 1,74 DF/F0 | 207 nM | –
CC(C)C[C@H](N)C(=O)N[C@H](Cc1ccccc1)C(=O)NCC(=O)N1CCC[C@@H]1C(=O)N[C@@H](Cc1ccc(O)cc1)C(=O)NCC(=O)N[C@H](Cc1c[nH]c2ccccc12)C(=O)N[C@H](CO)C(=O)N[C@@H](C)C(=O)O [compound 138] (H-L[dF]G[dP]YG[dW][dS]A-OH; N-terminus assumed) | 637 min | – | 1,97 DF/F0 | 104 nM | –
PLPGQQAFF-OH [compound 79] | 84 min | – | 0,6 DF/F0 | – | –
C[C@H](NC(=O)[C@H](Cc1ccc(O)cc1)NC(=O)[C@H](CCC(N)=O)NC(=O)[C@@H](CO)NC(=O)[C@H](Cc1ccccc1)NC(=O)[C@H](C)NC(=O)[C@@H](N)Cc1ccc(O)cc1)C(=O)N[C@@H](Cc1ccccc1)C(=O)N[C@H](CO)C(=O)O [compound 92] (H-YAF[dS]QYAF[dS]-OH; N-terminus assumed) | 52 min | – | 1,54 DF/F0 | 60.9 nM | –
CC(C)C[C@H](NC(=O)[C@H](N)Cc1ccc(O)cc1)C(=O)N1CCC[C@H]1C(=O)NCC(=O)N[C@H](Cc1c[nH]c2ccccc12)C(=O)N[C@@H](Cc1ccc(O)cc1)C(=O)N[C@@H](C)C(=O)N[C@@H](Cc1ccccc1)C(=O)N[C@H](Cc1ccccc1)C(=O)O [compound 142] (H-[dY]LPG[dW]YAF[dF]-OH; N-terminus assumed) | 421 min | – | 1,55 DF/F0 | 128 nM | –
CC(C)[C@H](N)C(=O)N1CCC[C@H]1C(=O)NCC(=O)N[C@@H](CCC(N)=O)C(=O)N[C@@H](Cc1ccc(O)cc1)C(=O)N[C@@H](C)C(=O)N[C@@H](Cc1ccccc1)C(=O)N[C@H](CO)C(=O)N[C@H](CO)C(=O)O [compound 99] (H-VPGQYAF[dS][dS]-OH; N-terminus assumed) | 43 min | – | 1,7 DF/F0 | 129 nM | –
